Measured values as given in the PolyMetriX glass transition set.

SMILES	glass transition temperature [°C]
*/C(=C(\[2H])C([2H])([2H])C(*)([2H])[2H])C([2H])([2H])[2H] (repeat unit)	-58.00
*C(=O)Nc1ccc(-c2ccc(NC(=O)c3ccc4c(c3)C(=O)N(c3ccc(Oc5cccc6c(N7C(=O)c8ccc(*)cc8C7=O)cccc56)cc3)C4=O)c(OC)c2)cc1OC (repeat unit)	304.00
*C(=O)c1ccc2c(c1)C(=O)N(c1cccc(C(c3cccc(N4C(=O)c5ccc(*)cc5C4=O)c3)(C(F)(F)F)C(F)(F)F)c1)C2=O (repeat unit)	239.00
*C(=O)c1ccc2c(c1)C(=O)N(c1cccc(Cc3ccc(Cc4ccc(Cc5cccc(N6C(=O)c7ccc(*)cc7C6=O)c5)cc4)cc3)c1)C2=O (repeat unit)	235.50
*C(=O)c1ccc2c(c1)C(=O)N(c1cccc(Nc3nc(Nc4cccc(N5C(=O)c6ccc(*)cc6C5=O)c4)nc(-c4ccccc4)n3)c1)C2=O (repeat unit)	292.00
*C/C=C/c1cc(C(C)(C)c2ccc(O)c(/C=C/CC3CC(=O)N(c4ccc(Cc5ccc(N6C(=O)CC(*)C6=O)cc5)cc4)C3=O)c2)ccc1O (repeat unit)	206.00
*CCCCCCCCCCCC(=O)Oc1ccc(C(C)(C)c2ccc(C(C)(C)c3ccc(OC(=O)c4ccc5c(c4)C(=O)N(*)C5=O)cc3)cc2)cc1 (repeat unit)	97.00
*CCN(CCOC(=O)Nc1ccc(-c2ccc(NC(=O)O*)c(C)c2)cc1C)c1ccc(/N=N/c2ccc([N+](=O)[O-])cc2)cc1 (repeat unit)	119.50
*Nc1ccc(-c2ccc(NC(=O)c3cccc(C(*)=O)c3)c(OC)c2)cc1OC (repeat unit)	218.20
*Nc1ccc(C(C)(C)c2ccc(C(C)(C)c3ccc(Nc4ccc(C(=O)c5ccc(C(=O)c6ccc(*)cc6)cc5)cc4)cc3)cc2)cc1 (repeat unit)	157.00
*Nc1ccc(C(C)(C)c2ccc(NC(=O)c3cc(C(*)=O)cc(N4C(=O)C=CC4=O)c3)cc2)cc1 (repeat unit)	303.00
*Nc1ccc(C(C)(C)c2ccc(NC(=O)c3cc(NC(=O)c4ccccc4)cc(C(*)=O)c3)cc2)cc1 (repeat unit)	303.50
*Nc1ccc(C(C)(C)c2ccc(NC(=O)c3cccc(C(*)=O)c3)cc2)cc1 (repeat unit)	279.00
*Nc1ccc(Nc2ccc(C(O)(c3ccccc3)c3ccc(C(O)(c4ccccc4)c4ccc(*)cc4)cc3)cc2)cc1 (repeat unit)	200.00
*OP(=O)(Oc1ccc(NC(=O)Oc2ccc(C(C)(C)c3ccc(OC(=O)Nc4ccc(*)cc4)cc3)cc2)cc1)c1ccccc1 (repeat unit)	34.00
*Oc1ccc(C(C)(C)c2ccc(OC(=O)c3ccc(C(*)=O)cc3)c(C(C)C)c2)cc1C(C)C (repeat unit)	140.00
*Oc1ccc(C(C)(C)c2ccc(OC(=O)c3ccc(C(*)=O)cc3)c(CCCC)c2)cc1CCCC (repeat unit)	160.00
*Oc1ccc2ccc(Oc3ccc(C(=O)Nc4ccc(C(C)(C)c5ccc(C(C)(C)c6ccc(NC(=O)c7ccc(*)cc7)cc6)cc5)cc4)cc3)cc2c1 (repeat unit)	155.00

SMILES	glass transition temperature [°C]
*c1cc(/C=N/C(=S)Nc2ccc(-n3c(=O)c4cc5c(=O)n(*)c(=O)c5cc4c3=O)cc2)ccc1Cl (repeat unit)	276.00
*c1ccc(-c2cc(-c3ccc(OCCCC#N)cc3)cc(-c3ccc(N4C(=O)c5ccc(Oc6ccc7c(c6)C(=O)N(*)C7=O)cc5C4=O)cc3)n2)cc1 (repeat unit)	315.00
*c1ccc(-c2cc(C(C)(C)C)c(Oc3ccc(N4C(=O)c5ccc(Oc6ccc7c(c6)C(=O)N(*)C7=O)cc5C4=O)cc3C(F)(F)F)c(C(C)(C)C)c2)cc1 (repeat unit)	353.00
*c1ccc(-c2cc(C(C)(C)C)c(Oc3ccc(N4C(=O)c5ccc(S(=O)(=O)c6ccc7c(c6)C(=O)N(*)C7=O)cc5C4=O)cc3)c(C(C)(C)C)c2)cc1 (repeat unit)	354.50
*c1ccc(-c2cc(C(C)(C)C)c(Oc3ccc(N4C(=O)c5ccc(S(=O)(=O)c6ccc7c(c6)C(=O)N(*)C7=O)cc5C4=O)cc3C(F)(F)F)c(C(C)(C)C)c2)cc1 (repeat unit)	365.50
*c1ccc(C(C)(C)c2ccc(C(C)(C)c3ccc(N4C(=O)c5ccc(Oc6cccc7c(Oc8ccc9c(c8)C(=O)N(*)C9=O)cccc67)cc5C4=O)cc3)cc2)cc1 (repeat unit)	253.00
*c1ccc(C(C)(C)c2ccc(N3C(=O)c4ccc(Oc5ccc(Oc6ccc7c(c6)C(=O)N(*)C7=O)cc5)cc4C3=O)cc2)cc1 (repeat unit)	264.00
*c1ccc(C(C)(C)c2ccc(N3C(=O)c4ccc(Oc5ccc6ccc(Oc7ccc8c(c7)C(=O)N(*)C8=O)cc6c5)cc4C3=O)cc2)cc1 (repeat unit)	247.00
*c1ccc(C(C)(C)c2ccc(N3C(=O)c4ccc(Oc5cccc6c(Oc7ccc8c(c7)C(=O)N(*)C8=O)cccc56)cc4C3=O)cc2)cc1 (repeat unit)	265.00
*c1ccc(N(c2ccc(C#N)cc2)c2ccc(N3C(=O)c4ccc(Oc5ccc(C6(c7ccc(Oc8ccc9c(c8)C(=O)N(*)C9=O)cc7)c7ccccc7-c7ccccc76)cc5)cc4C3=O)cc2)cc1 (repeat unit)	279.00
*c1ccc(N[Se]Nc2ccc(S(*)(=O)=O)cc2)cc1 (repeat unit)	62.00
*c1ccc(Nc2ccc(Nc3ccc(S(*)(=O)=O)cc3)cc2)cc1 (repeat unit)	145.00
*c1ccc(Nc2cccc(Nc3ccc(S(*)(=O)=O)cc3)c2)cc1 (repeat unit)	145.00
*c1ccc2c(c1)C(=O)N(c1ccc(-c3ccc(N4C(=O)c5ccc(C(*)(C(F)(F)F)C(F)(F)F)cc5C4=O)c(C)c3)cc1C)C2=O (repeat unit)	352.00
*c1ccc2c(c1)C(=O)N(c1ccc(-c3ccc(N4C(=O)c5ccc(C(*)(C(F)(F)F)C(F)(F)F)cc5C4=O)c(OC(=O)/C=C/c4ccccc4)c3)cc1OC(=O)/C=C/c1ccccc1)C2=O (repeat unit)	181.00
*c1ccc2c(c1)C(=O)N(c1ccc(-c3ccc(N4C(=O)c5ccc(C(*)(C(F)(F)F)C(F)(F)F)cc5C4=O)c(OCCOc4ccc5c(C)cc(=O)oc5c4)c3)cc1OCCOc1ccc3c(C)cc(=O)oc3c1)C2=O (repeat unit)	132.00
*c1ccc2c(c1)C(=O)N(c1ccc(Oc3c(C(C)(C)C)cc(-c4ccc(N5C(=O)c6ccc(C(*)(C(F)(F)F)C(F)(F)F)cc6C5=O)cc4)cc3C(C)(C)C)cc1)C2=O (repeat unit)	355.00

The remaining lines, values ahead:

glass transition temperature [°C]	SMILES
200.00	*/C(=C(/*)c1ccc(Oc2ccccc2)cc1)c1ccccc1 (repeat unit)
328.00	*C(=O)Nc1ccc(C2(c3ccc(N4C(=O)c5ccc(*)cc5C4=O)cc3)CC(C)CC(C)(C)C2)cc1 (repeat unit)
331.00	*C(=O)Nc1ccc(C2(c3ccc(N4C(=O)c5ccc(*)cc5C4=O)cc3)CCC(C(C)(C)C)CC2)cc1 (repeat unit)
342.00	*C(=O)Nc1ccc(C2(c3ccc(N4C(=O)c5ccc(*)cc5C4=O)cc3)CCC(C(C)(C)CC)CC2)cc1 (repeat unit)
322.00	*C(=O)Nc1ccc(C2(c3ccc(N4C(=O)c5ccc(*)cc5C4=O)cc3)CCC(C)CC2)cc1 (repeat unit)
194.00	*OC(=O)Oc1ccc(C(C)(C)c2ccc(OC(=O)OC3CC4CC(*)CC(C3)O4)cc2)cc1 (repeat unit)
146.00	*Oc1ccc(C(C)(C)c2ccc(OC(*)=O)c(Cl)c2)cc1 (repeat unit)
138.00	*Oc1ccc(C(C)(C)c2ccc(OC(*)=O)c(Cl)c2)cc1C (repeat unit)
147.00	*Oc1ccc(C(C)(C)c2ccc(OC(*)=O)c(Cl)c2)cc1Cl (repeat unit)
130.00	*Oc1ccc(C(C)(C)c2ccc(OC(=O)OC3C(C)(C)C(OC(*)=O)C3(C)C)cc2)cc1 (repeat unit)
56.50	*Oc1ccc(C(C)(C)c2ccc(OC(=O)OCCCCOC(*)=O)cc2)cc1 (repeat unit)
107.80	*Oc1ccc(C(C)(C)c2ccc(OC(=O)Oc3ccc(Cc4ccc(OC(*)=O)cc4)cc3)cc2)cc1 (repeat unit)
90.00	*Oc1ccc(C(C)(C)c2ccc(OC(=O)SCCCSC(*)=O)cc2)cc1 (repeat unit)
154.00	*Oc1ccc(C(C)(C)c2ccc(OC(=O)Sc3ccc(C(C)(C)c4ccc(SC(*)=O)cc4)cc3)cc2)cc1 (repeat unit)
178.50	*Oc1ccc(C(C)(C)c2ccc(OC(=O)c3ccc(C(*)=O)cc3)c(C)c2)cc1C (repeat unit)
190.00	*Oc1ccc(C(C)(C)c2ccc(OC(=O)c3ccc(C(*)=O)cc3)c(Cl)c2)cc1Cl (repeat unit)
119.00	*Oc1ccc(C(C)(CC)c2ccc(OC(*)=O)c(C)c2)cc1C (repeat unit)
136.00	*Oc1ccc(C(C)(CC)c2ccc(OC(*)=O)cc2)cc1 (repeat unit)
117.00	*Oc1ccc(C(C)(CCC#N)c2ccc(OC(*)=O)c(C)c2)cc1C (repeat unit)
147.00	*Oc1ccc(C(CC)(c2ccccc2)c2ccc(OC(*)=O)cc2)cc1 (repeat unit)
232.00	*Oc1ccc(C(c2ccc(OC(*)=O)cc2)C2C3CCC(C3)C2C)cc1 (repeat unit)
235.50	*Oc1ccc(C2(c3ccc(OC(*)=O)cc3)CC(C)CC(C)(C)C2)cc1 (repeat unit)
294.00	*Oc1ccc(C2(c3ccc(OC(*)=O)cc3)c3cc(OC)ccc3-c3ccc([N+](=O)[O-])cc32)cc1 (repeat unit)
150.00	*Oc1ccc(C2(c3ccc(OC(=O)CCCCC(*)=O)cc3)c3cc(N(C)C)ccc3-c3ccc([N+](=O)[O-])cc32)cc1 (repeat unit)
172.00	*Oc1ccc(C2(c3ccc(OC(=O)OC4C(C)(C)C(OC(*)=O)C4(C)C)cc3)CCC(C(C)(C)C)CC2)cc1 (repeat unit)
